We go through two compounds from patent US20230263773A1, “COMBINATION THERAPY WITH DEOXYURIDINE TRIPHOSPHATASE INHIBITORS” (CV6 Therapeutics (NI) Limited, priority 2020, published 2023).

Structures are written as SMILES.

The test relates to PD-L1. Kind of test: Cell-surface PD-L1 expression by flow cytometry. The note with it: 12.5 μM Compound A, 1 μM FUdR; 24 hours. The format is cell-based. Here is the method:
Experimental Overview. Programmed death-ligand 1 (PD-L1) is a type 1 transmembrane protein that plays a major role in suppressing the innate and adaptive arms of the immune system. The PD-1/PD-L1 pathway represents an adaptive immune resistance mechanism exerted by tumor cells in response to endogenous immune anti-tumor activity and is a well-established therapeutic target in cancer therapy. Cancer cells were treated with vehicle control (DMSO), the fluoropyrimidine FUdR (also known as floxuridine) alone, Compound A alone, or the combination of Compound A and FUdR, and the expression level of the immune checkpoint protein PD-L1 was measured by both Western blotting and flow cytometry and compared to control. Cell lines assayed for total PD-L1 protein expression by Western blotting included, pancreatic cancer, PANC-1; non-small cell lung cancer, H460; colorectal cancer, HCT116; breast cancer, MCF-7; melanoma, MeWo. Two cell lines were advanced to analyze cell surface PD-L1 by flow cytometry, MCF-7 and PANC-1.
Cell Surface Flow Cytometry. Cells were seeded in 6-well plates and permitted to adhere overnight. Media was removed and replaced with media containing the indicated concentrations of Compound A, FUdR or a combination of both, positive control cells were treated with IFNγ. Cells were then incubated for 24 hours. At the conclusion of specified timepoints, cells were washed with PBS and removed from the plates using trypsin-EDTA. Cells were counted and 300,000 cells were washed in staining buffer and incubated in PD-L1 or IgG antibody on ice for 40 minutes. Cells were then washed in staining buffer twice and finally resuspended in 300 μL of staining buffer and transferred to BD Falcon™ round-bottom tube. Dot plot for FSC v SSC were used to gate cell population and doublets were excluded on FL-4 histogram height versus area/width. IgG isotype control stained sample was used to identify the positively stained population. Percentage positive population and median fluorescent intensity values were exported and analyzed in Microsoft Excel and GraphPad Prism 6. Statistical analysis consisted of one-way ANOVA with Tukey's multiple comparisons testing.
(In general: A flow cytometer gives signals particle by particle.)

For the compound `O=c1[nH]c(=O)n([C@H]2C[C@H](O)[C@@H](CO)O2)cc1F` [FUdR], the “increase in cell-surface PD-L1 expression compared to control, MCF-7 cells” value is given as 4.7 fold and the “increase in cell-surface PD-L1 expression compared to control, PANC-1 cells” value was around 10 fold.

In the case of `C[C@@H](NS(=O)(=O)CCCCCN1CC(=O)NC1=O)c1ccc(F)c(OCC2CC2)c1` [Compound A], the “increase in cell-surface PD-L1 expression compared to control, MCF-7 cells” value is given as “No significant difference” and the “increase in cell-surface PD-L1 expression compared to control, PANC-1 cells” value is reported as “the same as vehicle control cells”.
